Assay results as given in patent US9346832B2, “Gold complexes for use in the treatment of cancer” (University of Kwazulu-Natal, priority 2010, dated 2016).
pIC50: −log10 of the molar value. Read-outs that look alike come from different tables or passages of the source.

What was measured:
[1] = Hydrolysis in aqueous solution; assay type: physicochemical; details: aqueous / phosphate buffered aqueous solutions
Source text: This is why binding to DNA of the intact chelate occurs (FIGS. 14 and 20). However, it is noteworthy that hydrolysis of a Au(III)-Npyrrole bond is a reaction that may be catalyzed by enzymes in plasma and could account for the plasma instability of MA_AuPr.

calf thymus DNA = test: Calf-thymus DNA titration (absorption hypochroism); assay type: binding
Experimental: FIG. 20 is a graph of the titration of MA_AuPr (1.1a) with calf-thymus DNA in aqueous pH 7 phosphate buffer at 37° C.
The hypochroism of the absorption band of the complex at 383 nm was monitored as a function of added ctDNA. […] Ka is the equilibrium binding constant in M^−1, Ct is the total Au(III) complex concentration, and s is the binding site size.

human cancer cell lines = test: Cytotoxicity summary (NCI-60 or independent cytotoxicity screen), Scheme 19; assay type: cell-based
HeLa cells = test: HeLa cell cytotoxicity dose-response; assay type: cell-based; details: for pIC50: pH 7.0, 37° C.
Experimental: FIG. 9 is a graph of the dose-response curves (HeLa cells, pH 7.0, 37° C.) for three macrocyclic Au(III) chelates. IC50 values for the complexes against HeLa cells obtained from the least squares data fits (graph) are given in the 3rd column of the table.
A summary of the average cytotoxicity data over 60 human cancer cell lines for 1.1a-1.1c and comparison with selected commercial and patented cytotoxic agents is shown in Scheme 7. […] The more abrupt the curve, the harder the dose-response function.

[2] = tested on: panel of human cancer cell lines; details: cited from earlier work
[3] = tested on: 60 human cancer cell lines; test: NCI-60 one-dose screen; assay type: cell-based; details: single dose 10 μM
Experimental: (§1) The gold(III) complexes of this invention were screened by the National Cancer Institute (NCI, USA) against their panel of 60 different human cancer cell lines. These screens initially entail a one-dose test for the compound at a high concentration (10 μM; e.g. FIGS. 5, 6 and 7). Compounds with a good cytotoxicity profile in the one-dose screen are then subjected to a five-dose screen for the full panel of sixty human cancer cell lines (the so-called 5-dose NCI-60 screen). In the full five-dose screen, the compound concentration is varied in five doses from 10^−8 M to 10^−4 M in order to establish a dose-response function of percentage cell growth versus the concentration of the test agent. […] Similar data will shortly be available for compounds 1.1Y^1b and 1.5Y^1a as these derivatives are in 5-dose screens currently at the NCI.
The results of one-dose NCI-60 screens are noteworthy and merit some discussion as they quickly indicate activity profiles, cell-line specificity, and general cytotoxicity for the test agents across multiple human cancer cell lines. FIGS. 5, 6, and 7 set out the one-dose screening results for MA_AuPr (FIG. 5), KA_AumacroPr (FIG. 6), and KA_AuMelmPr (FIG. 7) obtained by the NCI. These three compounds are the parent derivatives that are representative of the three new types of gold(III) Schiff base chelate relevant to this invention. All other compounds synthesized as part of this invention have been similarly analyzed.

[4] = tested on: 60 human cancer cell lines; test: NCI-60 five-dose screen, mean cytotoxicity over 60 human cancer cell lines; assay type: cell-based; details: mean over 60 human cancer cell lines
Experimental: as §1
The mean cytotoxicity data summarized in Scheme 7 were compiled over 60 human cancer cell lines from the NCI database. […] The dose-response curves for the bis(pyrrolide-imine) chelates of the invention are steeper, or harder, than those of all the compounds compared in Scheme 7.

topoisomerase I = target: T1, topoisomerase I (Homo sapiens, UniProt P11387); test: Supercoiled plasmid DNA relaxation assay with human topoisomerase I; assay type: biochemical
T1 sequence (P11387 1-765): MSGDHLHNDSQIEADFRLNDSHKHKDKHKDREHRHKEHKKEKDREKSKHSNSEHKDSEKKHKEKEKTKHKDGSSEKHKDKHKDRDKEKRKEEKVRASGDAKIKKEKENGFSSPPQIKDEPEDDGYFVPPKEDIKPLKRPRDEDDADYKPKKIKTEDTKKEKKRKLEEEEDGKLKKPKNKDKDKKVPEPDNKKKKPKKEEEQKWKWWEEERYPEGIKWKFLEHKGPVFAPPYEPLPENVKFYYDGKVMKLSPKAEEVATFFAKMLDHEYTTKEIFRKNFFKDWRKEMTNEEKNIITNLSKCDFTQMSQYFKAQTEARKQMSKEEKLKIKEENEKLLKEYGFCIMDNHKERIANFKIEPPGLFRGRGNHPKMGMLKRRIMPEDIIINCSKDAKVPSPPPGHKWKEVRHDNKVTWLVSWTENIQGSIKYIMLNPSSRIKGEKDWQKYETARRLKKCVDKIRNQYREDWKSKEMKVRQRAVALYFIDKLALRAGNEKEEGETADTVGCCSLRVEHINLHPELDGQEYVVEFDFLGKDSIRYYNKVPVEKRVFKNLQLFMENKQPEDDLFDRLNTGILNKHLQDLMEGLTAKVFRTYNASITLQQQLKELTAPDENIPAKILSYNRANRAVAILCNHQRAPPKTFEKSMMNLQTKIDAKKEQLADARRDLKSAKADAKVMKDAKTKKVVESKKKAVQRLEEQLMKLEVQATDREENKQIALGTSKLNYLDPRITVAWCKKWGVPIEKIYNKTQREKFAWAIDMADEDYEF
Experimental: FIG. 19 is a photograph of a gel showing the inhibition of human topoisomerase I by KA_AumacroPr as determined by supercoiled plasmid DNA relaxation assay (agarose gel electrophoresis).
Lanes 2-12 have 5U of topoisomerase I. The enzyme fully relaxes supercoiled (SC) DNA in lanes 3-8 for KA_AumacroPr concentrations ranging from 0-50 nM.
This is consistent with strong intercalative binding of KA_AumacroPr to the plasmid DNA probably before and after the action of topoisomerase I, and consequently inhibition of its normal turnover cycle.

[5] = target: topoisomerase II (topo II) (Homo sapiens, UniProt P11388); test: Topoisomerase II (topo II) DNA cleavage assay with kinetoplast DNA, agarose gel; assay type: biochemical
Experimental: FIG. 18 is a photograph of an agarose gel electrophoresis topoisomerase II (topo II) DNA cleavage assay (66 ng kinetoplast DNA, 4 U topo II) as a function of the concentration of KA_AumacroPr (complex 1.1Y^1a) (top) and a graph of a standard dose-response function fit of the experimental titration data (top gel) with (solid line) and without (dashed line) a Hill coefficient. The maximum ESD from triplicate measurements is shown (15%). Lanes 1-4 of the gel contain catenated DNA (no topo II), decatenated DNA (topo II present), decatenated DNA (solvent control), and linear DNA, respectively. The lane marked VP-16 contained DNA, topo II, and etoposide (VP-16). Band labels: I, catenated DNA; II, open-circular (OC) DNA; III, linear DNA; IV, closed-covalently circular (CCC) DNA. […]
The topo II inhibition assay for the Au(III) macrocycle KA_AumacroPr is shown above in FIG. 18.

[6] = tested on: 3LL tumor (Lewis lung carcinoma); test: 3LL tumor growth in black mice; details: 20 days, 26 μmol/kg once weekly
[7] = tested on: 60 human cancer cell lines; details: comparison drugs, NCI database, mean over 60 cell lines, cited from earlier work

Chain of topoisomerase II (topo II) (P11388 whole entry): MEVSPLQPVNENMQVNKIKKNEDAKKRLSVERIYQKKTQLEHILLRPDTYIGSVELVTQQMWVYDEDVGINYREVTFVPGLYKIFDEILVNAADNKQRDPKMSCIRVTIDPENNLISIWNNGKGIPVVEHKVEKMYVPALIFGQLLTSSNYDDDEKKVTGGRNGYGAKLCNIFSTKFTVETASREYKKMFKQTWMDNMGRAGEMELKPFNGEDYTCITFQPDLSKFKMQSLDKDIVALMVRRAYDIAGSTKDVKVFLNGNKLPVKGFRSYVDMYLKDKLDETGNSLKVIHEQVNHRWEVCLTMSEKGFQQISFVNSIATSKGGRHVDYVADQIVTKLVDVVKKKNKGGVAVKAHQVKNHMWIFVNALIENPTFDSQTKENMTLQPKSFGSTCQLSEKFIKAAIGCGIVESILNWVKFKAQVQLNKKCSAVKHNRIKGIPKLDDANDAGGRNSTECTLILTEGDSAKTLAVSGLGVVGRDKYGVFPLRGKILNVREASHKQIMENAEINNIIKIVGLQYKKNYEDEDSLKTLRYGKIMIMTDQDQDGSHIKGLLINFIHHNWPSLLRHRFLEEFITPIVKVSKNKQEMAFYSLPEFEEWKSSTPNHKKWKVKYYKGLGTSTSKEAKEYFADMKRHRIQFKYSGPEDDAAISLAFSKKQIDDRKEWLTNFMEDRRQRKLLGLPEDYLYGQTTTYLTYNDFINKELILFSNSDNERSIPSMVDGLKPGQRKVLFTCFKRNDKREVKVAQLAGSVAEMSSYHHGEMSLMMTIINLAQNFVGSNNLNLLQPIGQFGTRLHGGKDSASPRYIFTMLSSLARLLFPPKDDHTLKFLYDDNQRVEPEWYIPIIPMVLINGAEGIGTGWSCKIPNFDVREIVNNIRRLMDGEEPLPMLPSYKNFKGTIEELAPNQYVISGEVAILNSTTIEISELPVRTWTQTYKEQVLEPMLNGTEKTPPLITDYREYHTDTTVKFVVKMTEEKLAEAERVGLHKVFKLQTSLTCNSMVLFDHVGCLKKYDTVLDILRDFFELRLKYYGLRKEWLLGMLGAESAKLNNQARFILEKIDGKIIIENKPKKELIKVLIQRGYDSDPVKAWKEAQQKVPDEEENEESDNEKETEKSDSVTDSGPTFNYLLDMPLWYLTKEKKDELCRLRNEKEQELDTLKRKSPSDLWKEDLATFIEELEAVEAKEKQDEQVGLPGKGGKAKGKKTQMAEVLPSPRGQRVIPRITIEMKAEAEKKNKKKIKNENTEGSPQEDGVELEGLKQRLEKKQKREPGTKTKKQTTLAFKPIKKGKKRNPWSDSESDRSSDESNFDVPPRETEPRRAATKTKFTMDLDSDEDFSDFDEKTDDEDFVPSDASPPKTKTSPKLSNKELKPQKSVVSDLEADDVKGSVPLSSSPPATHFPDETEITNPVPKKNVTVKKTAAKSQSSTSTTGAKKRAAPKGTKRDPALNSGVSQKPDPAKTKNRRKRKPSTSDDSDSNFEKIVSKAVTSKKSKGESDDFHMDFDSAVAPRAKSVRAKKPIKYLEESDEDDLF

Molecule: C1=[N+]2CC[N+]3=Cc4ccc[n]4[Au-]23[n]2cccc21.F[P-](F)(F)(F)(F)F [Compound 1.2a, 2,2′-{ethane-1,2-diylbis[nitrilo(E)methylylidene]}bis(pyrrol-1-ido)gold(III) hexafluorophosphate(V)]
- hydrolysis [1]: water may displace a pyrrole ring from the Au(III) ion

Molecule: C1=[N+]2CCCC[N+]3=Cc4ccc5[n]4[Au-]23[n]2c1ccc2-c1nc2ccccc2nc1-5.F[P-](F)(F)(F)(F)F [KA_AumacroBu, {12,13,14,15-tetrahydro-6,9:18,21-diepimino[1,6]diazacycloctadecino[12,13-b]quinoxalinato}gold(III) hexafluorophosphate(V)]
- Ka (calf thymus DNA) (calf thymus DNA; KA series: pH 7.0 15% DMSO-TRIS buffer at 25° C.): 1.20(9) × 10^6 M^−1
- Cytotoxicity (human cancer cell lines): active
- GI50 (HeLa cells): ~100 nM
- pIC50 (HeLa cells): 6.43
- CC50 (HeLa cells; read-out: LC50 (the source's name)): < 10 µM

Molecule: C1=Cc2nc1c(-c1ccccc1)c1ccc([nH]1)c(-c1ccccc1)c1nc(c(-c3ccccc3)c3ccc([nH]3)c2-c2ccccc2)C=C1 [[Zn^II(TPP)]]
- pIC50 ([2]; literature values): < 4.30

Molecule: 4,4′-{propane-1,3-diylbis[nitrilo(E)methylylide]}bis(5-methylimidazol-1-ide)gold(III) hexafluorophosphate(V) [KA_AuMelmPr]
- one-dose screening result [3]: Breast and leukemia cell lines were, as a group, the most sensitive

Molecule: F[P-](F)(F)(F)(F)F.OC1CN=Cc2ccc[n]2[Au+][n]2cccc2C=NC1 (centres unmarked) [MA_AuOH, 2,2{(2-hydroxypropane-1,3-diyl)bis[nitrilo(E)methyl-ylidene]}bis(pyrrol-1-ido)gold(III) hexafluorophosphate(V)]
- Ka (calf thymus DNA) (calf thymus DNA; MA series: pH 7.0 phosphate buffer at 37° C.): 1.43(3) × 10^5 M^−1
- one-dose screening result [3]: not sufficiently active
- CC50 ([4]; 50% cell death, read-out: LC50 (the source's name)): > 100 µM
- GI50 ([4]; 50% growth inhibition): > 100 µM
- TGI (concentration for total growth inhibition) ([4]; 100% (total) growth inhibition, read-out: TGI or IC50): > 100 µM

Molecule: ClC1CN=Cc2ccc3[n]2[Au+][n]2c(ccc2-c2nc4ccccc4nc2-3)C=NC1.F[P-](F)(F)(F)(F)F (stereo not drawn) [Compound 1.1Y^1e, {13-chloro-12,14-dihydro-6,9:17,20-diepimino[1,6]diazacyclo-heptadecino[12,13-β]quinoxalinato}gold(III) hexafluorophosphate(V)]
- Ka (calf thymus DNA) (calf thymus DNA; KA series: pH 7.0 15% DMSO-TRIS buffer at 25° C., listed as 1.1Y^1a): 2.8(2) × 10^6 M^−1
- Ka (calf thymus DNA) (calf thymus DNA; KA series: pH 7.0 15% DMSO-TRIS buffer at 25° C., listed as 1.1Y^1b): 1.49(8) × 10^6 M^−1
- Cytotoxicity (human cancer cell lines): active
- action on human topoisomerase I (topoisomerase I; listed as 1.1Y^1b): catalytic inhibitor of human topoisomerase I
- GI50 (HeLa cells): ~100 nM
- pIC50 (HeLa cells): ~5.52

Molecule: C1=Cc2nc1c(-c1ccccc1)c1ccc([n-]1)c(-c1ccccc1)c1nc(c(-c3ccccc3)c3ccc([n-]3)c2-c2ccccc2)C=C1.[Au+3].[Cl-] [[Au(TPP)]Cl]
- cytotoxicity to cancer cells versus non-cancerous cells ([2]; MTT assay, PBMCs and CCD-19Lu cells): at least ten-fold higher cytotoxicity

Molecule: C1=[N+]2CCC[N+]3=Cc4ccc5[n]4[Au-]23[n]2c1ccc2-c1nc2ccccc2nc1-5.F[P-](F)(F)(F)(F)F [KA_AumacroPr, {12,13-dihydro-14H-6,9:17,20-diepimino[1,6]diazacyclo-heptadecino[12,13-β]quinoxalinato}gold(III) hexafluorophosphate(V)]
- pIC50 ([5]; 66 ng kinetoplast DNA, 4 U topo II, read-out: IC50 (enzyme inhibition)): 5.32
- action on topo II ([5]; no trapped linear DNA cleavage products): pure catalytic inhibitor
- action on human topoisomerase I (topoisomerase I): interferes with the normal operation of human topoisomerase I
- concentrations at which the enzyme fully relaxes supercoiled DNA (topoisomerase I; 5U topoisomerase I): 0 to 50 nM
- concentrations at which topoisomerase I exhibits abnormal and incomplete substrate relaxation (topoisomerase I; 5U topoisomerase I, up to 500 μM): ≥ 500 nM
- one-dose screening result [3]: good cytotoxicity for the majority of the cell lines

Molecule: N.N.[Cl][Pt][Cl] [cisplatin, cis-[PtCl2(NH3)2]]
- reduction of 3LL tumor growth rate [6]: 76%
- GI50 ([7]; 50% growth inhibition): 2000 nM
- pIC50 ([7]; read-out: TGI or IC50, total growth inhibition): 4.57
